Starred links: 1 amine or outer side, 2 acyl side, 3 side chain; linkers in the order of their positions; H or OH if unused. Non-standard residues stand in square brackets, D forms with d. Residues, ends and D or L forms follow the SMILES beside them. *: point of attachment. Sta = CC(C)C[C@H](N)[C@@H](O)CC(=O)O; pNA = O=[N+]([O-])c1ccc(N*)cc1; Suc = O=C(CCC(=O)[*:2])[*:1]; Isovaleryl = CC(C)CC(=O)*
Key:
AL protease [1] = target: T1, AL protease (Nesterenkonia aethiopica, UniProt D0VWT7); assay: Assay with synthetic peptide, pNA, AMC, NNap and ester substrates (kinetic parameters); type: biochemical, Nesterenkonia sp. AL; settings: for Hydrolysis of synthetic substrate by AL protease: result in words
T1 sequence (D0VWT7 entry or part of it): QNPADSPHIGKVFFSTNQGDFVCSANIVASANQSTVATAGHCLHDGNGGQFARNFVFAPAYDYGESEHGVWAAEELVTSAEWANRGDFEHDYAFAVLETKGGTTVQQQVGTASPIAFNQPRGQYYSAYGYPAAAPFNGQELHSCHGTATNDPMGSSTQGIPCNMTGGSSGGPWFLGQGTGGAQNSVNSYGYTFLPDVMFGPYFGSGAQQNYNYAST
Method: The AL protease activity toward a variety of commercially available synthetic peptide substrates was assayed. The incubation volume was always 1 ml in which 10 μl enzyme solution; 0.76 mg protein/ml was used unless otherwise stated. Initial reaction rates were fitted to the Michaelis-Menten equation, and kinetic parameters, kcat and Km were determined.
Fluorometric assay for Suc-L-Y-AMC, Suc-A-A-F-AMC, Suc-I-I-W-AMC, Suc-A-A-K-AMC, NA-Bz-R-AMC, Suc-L-L-V-Y-AMC, Suc-F-G-L-β-NNap, Suc-L-β-NNap (Sigma) was performed in 50 mM glycine-NaOH buffer, pH 10 at 25° C. The substrate concentration range was from 0.05 to 10 mM except for Suc-L-L-V-Y-AMC (0.1-25 μM). Fluorescence was monitored with a SPEX Fluorolog spectrometer, in a 1×1 cm quartz cuvette placed in a thermostat cuvette holder, using excitation wavelength of 345 nm, emission wavelength 442 nm slit width 5 nm for AMC substrate and excitation wavelength of 340 nm, emission wavelength of 410 and slit width 5 nm for β-NNap substrates. A standard solution of AMC and β-naphthylamine was used to convert the fluorescence values to product concentrations.
Activity with p-nitroanilide substrates was tested at 25° C. in 50 mM Tris-HCl buffer, pH 9. Following substrates were used: Bz-Tyr-pNA (Sigma), BAPNA, Suc-Phe-pNA, Suc-A-A-P-F-pNA, Suc-A-A-P-L-pNA, Suc-G-G-G-pNA, Suc-A-A-A-pNA, Suc-A-A-V-pNA (Bachem Feinchemikalien AG (Bubendorf, Switzerland), and S-benzyl-L-cysteine-4-nitroanilide (Fluka Chemie AG, Buchs, Switzerland). The release of p-nitroanilide (pNA) was measured at 410 nm. Extinction coefficient (E) of pNA was taken to be 8480 M^−1 cm^−1. Initial reaction rates were determined over a concentration range of 0.05-10 mM for most substrates, excluding Suc-A-A-P-L-pNA (0.05-20 mM), and S-benzyl-L-Cysteine-4-nitroanilide (0.05-80 mM).
Hydrolytic activity of the enzyme on the ester substrates, BAEE, BTEE, Bz-F-NE, p-nitrophenyl acetate, p-nitrophenyl butyrate and Suc-F-L-F-SBzl (Sigma) was examined spectrophotometrically at 410 nm (ε410=900 M^−1cm^−1) in 50 mM Tris-HCl buffer, pH 9 at 25° C. and 50° C. respectively. The substrates concentration range between 0.05 to 10 mM. The Initial hydrolysis of BAEE, Suc-F-L-F-SBzl was followed at 253 nm (ε253=1150 M^−1cm^−1) and BTEE at 259 nm (ε259=964 M^−1cm^−1), at which their extinction coefficients were taken in calculation.
Due to the poor aqueous solubility of some of the substrates, their stock solutions were prepared in organic solvents, and further dilution was done with the used buffer. Suc-F-G-L-β-NNap, Suc-L-L-V-Y-AMC, Suc-L-Y-AMC, Suc-A-A-F-AMC, Suc-I-I-W-AMC, Suc-A-A-K-AMC, NA-Bz-R-AMC and Bz-Tyr-pNA, Suc-F-L-F-SBzl and Bz-F-βNE were dissolved in dimethylsulfoxide (DMSO), Suc-Phe-pNA, BTEE and BAPNA in ethanol, Suc-A-A-A-pNA in N,N-dimethylformamide (DMF), and Bz-Cys-NA in acetonitrile.
In these cases the kcat/Km was calculated from velocity measurements at low substrate concentration [S]<<Km, where v=(kcat/Km)[E]0 [S].

AL protease [2] = target: T1, AL protease; assay: biochemical; type: biochemical, Nesterenkonia sp. AL
Method: (§1) Protease activity was determined using casein as substrate as described earlier [3.12]. The reaction mixture in a total volume of 2 ml was composed of 1% casein, 50 mM glycine-NaOH buffer, pH 10, and appropriately diluted enzyme. After 20 min incubation at 50° C. the reaction was terminated by adding equal volume of 10% trichloroacetic acid (TCA). After separation of the unreacted casein precipitate by centrifugation, 0.5 ml of clear supernatant was mixed with 2.5 ml of 0.5 M Na2CO3 and 0.5 ml of 1 N Folin-Ciocalteau's phenol reagent. After 30 min at 25° C., absorbance was measured at 660 nm against a reagent blank. One unit of protease activity was defined as the amount of enzyme that released 1 μg of amino acid equivalent to tyrosine per min under the standard assay conditions.
(§2) AL protease was also not inhibited by inhibitors of cysteine proteases, aspartate proteases and metal proteases (Table 5). The effect of another serine protease specific inhibitor, 3,4-dichlorocoumarin at a concentration of 100 μM on the protease activity was investigated.

AL-89 protease = assay: Effect of protease inhibitors on AL-89 protease activity; type: biochemical, Bacillus pseudofirmus AL-89; settings: for Remaining activity (%): AL-89 protease, incubated 1 h at 30° C.
Method: as §1, §2

[3] = AL protease, inhibitor 10 mM, incubated 1 h at 30° C.
[4] = substrate marked b (footnote not given), pNA and ester substrates, 50 mM Tris-HCl buffer, pH 9
[5] = substrate marked a (footnote not given), AMC substrate, 50 mM glycine-NaOH buffer, pH 10 at 25° C.

## O=C(O)CCC(=O)N[C@@H](Cc1ccccc1)C(=O)Nc1ccc([N+](=O)[O-])cc1 [Suc-Phe-pNA, N-succinyl-phenylalanine-p-nitroanilide]
AL protease [1]
  Hydrolysis of synthetic substrate by AL protease: did not show detectable activity

## CC(=O)Oc1ccc([N+](=O)[O-])cc1 [p-nitrophenyl acetate]
AL protease [1]
  Hydrolysis of synthetic substrate by AL protease: unable to cleave

## N=C(N)NCCCC(NC(=O)c1ccccc1)C(=O)Nc1ccc([N+](=O)[O-])cc1 (racemic) [BAPNA, Nα-benzoyl-D,L-arginine-p-nitroanilide]
AL protease [1]
  Hydrolysis of synthetic substrate by AL protease: did not show detectable activity

## N-Succinyl-Ala-Ala-Ala-p-nitroanilide [Suc-A-A-A-pNA]
AL protease [1]
  Hydrolysis of synthetic substrate by AL protease: unable to hydrolyze

## O=C(O)CN(CCN(CC(=O)O)CC(=O)O)CC(=O)O [EDTA, ethylenediamino tetraacetate]
AL protease [2]; [3]
  Remaining activity (%): 99%
AL-89 protease; inhibitor 10 mM
  Remaining activity (%): 98%

## N-succinyl-Ala-Ala-Val-p-nitroanilide (Suc-Ala-Ala-Val-pNA; SMILES CC(C)[C@H](NC(=O)[C@H](C)NC(=O)[C@H](C)NC(=O)CCC(=O)O)C(=O)Nc1ccc([N+](=O)[O-])cc1) [Suc-A-A-V-pNA]
AL protease [1]
  Hydrolysis of synthetic substrate by AL protease: unable to hydrolyze

## O=C(O)c1cc[c]([Hg][Cl])cc1 [PCMBA]
AL protease [2]; AL protease, inhibitor 5 mM, incubated 1 h at 30° C.
  Remaining activity (%): 99%
AL-89 protease; inhibitor 5 mM
  Remaining activity (%): 91%

## c1cnc2c(c1)ccc1cccnc12 [1,10-Phenanthroline]
AL protease [2]; [3]
  remaining activity at 10000 µM: 113%
AL-89 protease; inhibitor 10 mM
  Remaining activity (%): 75%

## O=S(=O)(F)Cc1ccccc1 [PMSF, phenyl-methanesulfonyl fluoride]
AL protease [2]; AL protease, inhibitor 1 mM, incubated 1 h at 30° C.
  Remaining activity (%): 100%
AL protease [2]; [3]
  Remaining activity (%): 108%
AL protease [2]; result in words, PMSF up to 10 mM, others at concentrations of Table 5
  Inhibition of AL protease activity: did not inhibit
AL-89 protease; inhibitor 1 mM
  Remaining activity (%): 0%
AL-89 protease; inhibitor 10 mM
  Remaining activity (%): 0%
AL-89 protease; result in words, 1 mM
  Inhibition of AL-89 protease activity: totally inhibited

## N-succinyl-Gly-Gly-Gly-p-nitroanilide (Suc-Gly-Gly-Gly-pNA; SMILES O=C(O)CCC(=O)NCC(=O)NCC(=O)NCC(=O)Nc1ccc([N+](=O)[O-])cc1) [Suc-G-G-G-pNA]
AL protease [1]
  Hydrolysis of synthetic substrate by AL protease: unable to hydrolyze

## N-succinyl-Ala-Ala-Pro-Leu-p-nitroanilide (Suc-AAPL-pNA; SMILES CC(C)C[C@H](NC(=O)[C@@H]1CCCN1C(=O)[C@H](C)NC(=O)[C@H](C)NC(=O)CCC(=O)O)C(=O)Nc1ccc([N+](=O)[O-])cc1) [Suc-A-A-P-L-pNA]
AL protease [1]
  Hydrolysis of synthetic substrate by AL protease: remarkable hydrolyzing activity
AL protease [1]; [4]
  Km: 9300 µM
  kcat: 6646.19 s⁻¹

## N-succinyl-Ala-Ala-Pro-Phe-p-nitroanilide (Suc-AAPF-pNA) [Suc-A-A-P-F-pNA]
AL protease [1]
  Hydrolysis of synthetic substrate by AL protease: remarkable hydrolyzing activity
AL protease [1]; [4]
  Km: 2970 µM
  kcat: 4391.46 s⁻¹

## CC(C)CC(=O)N[C@H](C(=O)N[C@H](C(=O)N[C@@H](CC(C)C)[C@@H](O)CC(=O)N[C@@H](C)C(=O)N[C@@H](CC(C)C)[C@@H](O)CC(=O)O)C(C)C)C(C)C [Pepstatin] (Isovaleryl-VV[Sta]A[Sta]-OH)
AL protease [2]; AL protease, inhibitor 0.1 mM, incubated 1 h at 30° C.
  remaining activity at 100 µM: 102%
AL-89 protease; inhibitor 0.1 mM
  Remaining activity (%): 100%

## N-succinyl-Leu-Leu-Val-Tyr-7-amino-4-methyl coumarin [Suc-L-L-V-Y-AMC]
AL protease [1]; AL protease
  kcat/Km higher than that for Suc-A-A-P-F-pNA and Suc-A-A-P-L-pNA: 2.5-5 fold
AL protease [1]
  Hydrolysis of synthetic substrate by AL protease: remarkable hydrolyzing activity
AL protease [1]; [5]
  Km: 15 µM
  kcat: 51.68 s⁻¹

Source: patent US20060142171A1, “Novel alkaline protease” (priority 2003, published 2006)
